pEC50, pIC50: −log10 of the molar value. Calls of active or inactive are those of the source. The rule behind the calls is not given here.
Tests used:
[1] = target: T1, Protein cereblon/Tyrosine-protein kinase ABL1/Breakpoint cluster region protein (Homo sapiens, UniProt P00519+P11274+Q96SW2); test: Protac activity at Cereblon/BCR/ABL in human K562 cells assessed as induction of BCR-ABL degradation incubated for 32 to 48 hrs by Western blot analysis; format: cell-based
K562 = test: Antiproliferative activity against human K562 cells incubated for 3 days by CCK8 assay; format: functional, cell-based; settings: K562, 72 h
[2] = tested on: Protein cereblon/Tyrosine-protein kinase ABL1/Breakpoint cluster region protein (Homo sapiens), P00519+P11274+Q96SW2 [T315I]; test: Protac activity at Cereblon/BCR/ABL T315I mutant (unknown origin) expressed in mouse BaF3 cells assessed as reduction in BCR-ABL T315I mutant protein levels at 3 to 30000 nM incubated for 32 hrs by Western blot analysis; format: cell-based
BaF3 = test: Antiproliferative activity against wild type mouse BA/F3 cells incubated for 3 days by CCK8 assay; format: cell-based; settings: BaF3, 72 h
[3] = target: Protein cereblon/Tyrosine-protein kinase ABL1/Breakpoint cluster region protein (Homo sapiens, UniProt P00519+P11274+Q96SW2, T315I); format: cell-based, BaF3
[4] = tested on: Protein cereblon/Tyrosine-protein kinase ABL1/Breakpoint cluster region protein (Homo sapiens), P00519+P11274+Q96SW2 [E255K]; test: Protac activity at Cereblon/BCR/ABL E255K mutant (unknown origin) expressed in human HeLa cells assessed as reduction in BCR-ABL E255K mutant protein levels at 10 to 10000 nM incubated for 32 hrs by Western blot analysis; format: cell-based
[5] = tested on: Protein cereblon/Tyrosine-protein kinase ABL1/Breakpoint cluster region protein (Homo sapiens), P00519+P11274+Q96SW2 [H396R]; test: Protac activity at Cereblon/BCR/ABL H396R mutant (unknown origin) expressed in human HeLa cells assessed as reduction in BCR-ABL H396R mutant protein levels at 10 to 10000 nM incubated for 32 hrs by Western blot analysis; format: cell-based
[6] = tested on: Protein cereblon/Tyrosine-protein kinase ABL1/Breakpoint cluster region protein (Homo sapiens), P00519+P11274+Q96SW2 [V468F]; test: Protac activity at Cereblon/BCR/ABL V468F mutant (unknown origin) expressed in human HeLa cells assessed as reduction in BCR-ABL V468F mutant protein levels at 10 to 10000 nM incubated for 32 hrs by Western blot analysis; format: cell-based
H9c2 = test: Antiproliferative activity against rat H9C2 cells incubated for 3 days by CCK8 assay; format: cell-based; settings: H9c2, 72 h
HUVEC [7] = test: Antiproliferative activity against human HUVEC incubated for 3 days by CCK8 assay; format: cell-based; settings: 72 h
[8] = target: T2, Tyrosine-protein kinase ABL1 (Homo sapiens, UniProt P00519, T315I); test: Inhibition of human ABL T315I mutant using EAIYAAPFAKKK substrate and [gamma-33P]-ATP incubated for 40 mins by scintillation counting method
[9] = target: Tyrosine-protein kinase Lyn (Homo sapiens, UniProt P07948); test: Inhibition of human LYN using poly(Glu,Tyr)4:1 substrate and [gamma-33P]-ATP incubated for 40 mins by scintillation counting method
[10] = target: T3, Proto-oncogene tyrosine-protein kinase Src (Homo sapiens, UniProt P12931); test: Inhibition of human c-SRC using poly(Glu,Tyr)4:1 substrate and [gamma-33P]-ATP incubated for 40 mins by scintillation counting method
[11] = target: Vascular endothelial growth factor receptor 2 (Homo sapiens, UniProt P35968); test: Inhibition of human VEGFR2 using MBP substrate and [gamma-33P]-ATP incubated for 40 mins by scintillation counting method
HUVEC [12] = test: Toxicity in HUVEC assessed as inhibition of tube formation at 1 uM incubated for 20 hrs by optical microscopy based matrigel-based assay; format: cell-based; settings: human
[13] = target: T1, Protein cereblon/Tyrosine-protein kinase ABL1/Breakpoint cluster region protein; test: Protac activity at Cereblon/BCR/ABL in human K562 cells assessed as synergistic antiproliferation effect by measuring combination index at 0.25 to 4 times alone antiproliferative EC50 ibn presence of hedgehog pathway inhibitor […] by Chou-Talalay method; format: cell-based
[14] = target: Protein cereblon/Receptor-type tyrosine-protein kinase FLT3 (Homo sapiens, UniProt P36888+Q96SW2); test: Protac activity at Cereblon/Flt3 in human K562 cells assessed as reduction in Flt3 protein levels at 3 to 30000 nM incubated for 48 hrs by Western blot analysis; format: ADME, cell-based
[15] = target: Protein cereblon/Proto-oncogene tyrosine-protein kinase Src (Homo sapiens, UniProt P12931+Q96SW2); test: Protac activity at Cereblon/Src in human K562 cells assessed as reduction in Src protein levels at 3 to 30000 nM incubated for 48 hrs by Western blot analysis; format: ADME, cell-based; settings: k562, 48 h, 30 µM
[16] = target: Protein cereblon/Mast/stem cell growth factor receptor Kit (Homo sapiens, UniProt P10721+Q96SW2); test: Protac activity at Cereblon/C-Kit in human K562 cells assessed as reduction in C-Kit protein levels at 3 to 30000 nM incubated for 48 hrs by Western blot analysis; format: ADME, cell-based; settings: k562, 48 h, 30 µM
[17] = target: Protein cereblon/Platelet-derived growth factor receptor alpha (Homo sapiens, UniProt P16234+Q96SW2); test: Protac activity at Cereblon/PDGFRalpha in human K562 cells assessed as reduction in PDGFRalpha protein levels at 3 to 30000 nM incubated for 48 hrs by Western blot analysis; format: ADME, cell-based; settings: k562, 48 h, 30 µM
[18] = target: T2, Tyrosine-protein kinase ABL1; test: Safety index, ratio of compound IC50 to ponatinib IC50 for inhibition of human ABL T315I mutant using EAIYAAPFAKKK substrate and [gamma-33P]-ATP incubated for 40 mins by scintillation counting method
[19] = target: T3, Proto-oncogene tyrosine-protein kinase Src; test: Safety index, ratio of compound IC50 to ponatinib IC50 for inhibition of human c-SRC using poly(Glu,Tyr)4:1 substrate and [gamma-33P]-ATP incubated for 40 mins by scintillation counting method

T3 sequence (P12931 2-536 limits assumed): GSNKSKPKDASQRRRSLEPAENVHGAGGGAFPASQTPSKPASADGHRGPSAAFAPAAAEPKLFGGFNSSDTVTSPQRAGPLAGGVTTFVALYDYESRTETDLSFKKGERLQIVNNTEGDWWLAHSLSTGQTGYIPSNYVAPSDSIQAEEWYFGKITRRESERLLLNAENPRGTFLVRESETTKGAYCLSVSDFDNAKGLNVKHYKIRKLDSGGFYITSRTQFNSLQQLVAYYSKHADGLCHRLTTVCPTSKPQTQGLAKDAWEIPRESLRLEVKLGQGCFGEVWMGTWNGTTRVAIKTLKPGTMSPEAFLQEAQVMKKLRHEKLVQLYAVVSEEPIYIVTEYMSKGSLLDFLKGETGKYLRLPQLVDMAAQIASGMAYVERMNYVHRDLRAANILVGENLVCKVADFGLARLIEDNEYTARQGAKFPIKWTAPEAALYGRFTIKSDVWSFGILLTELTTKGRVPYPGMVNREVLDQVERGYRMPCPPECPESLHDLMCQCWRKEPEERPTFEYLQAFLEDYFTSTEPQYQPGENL
Sequence of Tyrosine-protein kinase Lyn (P07948 whole entry): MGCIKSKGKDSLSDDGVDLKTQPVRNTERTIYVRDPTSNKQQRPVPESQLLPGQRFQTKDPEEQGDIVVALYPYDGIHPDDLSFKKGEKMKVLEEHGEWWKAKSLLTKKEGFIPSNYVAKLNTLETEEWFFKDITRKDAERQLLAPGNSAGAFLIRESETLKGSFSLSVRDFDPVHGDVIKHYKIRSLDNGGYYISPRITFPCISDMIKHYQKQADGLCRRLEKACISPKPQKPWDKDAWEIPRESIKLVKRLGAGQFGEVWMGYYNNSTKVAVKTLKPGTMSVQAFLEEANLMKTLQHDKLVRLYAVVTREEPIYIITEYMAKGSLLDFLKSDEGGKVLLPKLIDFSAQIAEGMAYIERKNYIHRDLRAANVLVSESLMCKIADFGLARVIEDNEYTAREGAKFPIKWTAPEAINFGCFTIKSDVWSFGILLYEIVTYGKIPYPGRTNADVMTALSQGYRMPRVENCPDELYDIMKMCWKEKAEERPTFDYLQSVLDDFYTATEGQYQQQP
Sequence of Protein cereblon/Mast/stem cell growth factor receptor Kit (P10721 whole entry): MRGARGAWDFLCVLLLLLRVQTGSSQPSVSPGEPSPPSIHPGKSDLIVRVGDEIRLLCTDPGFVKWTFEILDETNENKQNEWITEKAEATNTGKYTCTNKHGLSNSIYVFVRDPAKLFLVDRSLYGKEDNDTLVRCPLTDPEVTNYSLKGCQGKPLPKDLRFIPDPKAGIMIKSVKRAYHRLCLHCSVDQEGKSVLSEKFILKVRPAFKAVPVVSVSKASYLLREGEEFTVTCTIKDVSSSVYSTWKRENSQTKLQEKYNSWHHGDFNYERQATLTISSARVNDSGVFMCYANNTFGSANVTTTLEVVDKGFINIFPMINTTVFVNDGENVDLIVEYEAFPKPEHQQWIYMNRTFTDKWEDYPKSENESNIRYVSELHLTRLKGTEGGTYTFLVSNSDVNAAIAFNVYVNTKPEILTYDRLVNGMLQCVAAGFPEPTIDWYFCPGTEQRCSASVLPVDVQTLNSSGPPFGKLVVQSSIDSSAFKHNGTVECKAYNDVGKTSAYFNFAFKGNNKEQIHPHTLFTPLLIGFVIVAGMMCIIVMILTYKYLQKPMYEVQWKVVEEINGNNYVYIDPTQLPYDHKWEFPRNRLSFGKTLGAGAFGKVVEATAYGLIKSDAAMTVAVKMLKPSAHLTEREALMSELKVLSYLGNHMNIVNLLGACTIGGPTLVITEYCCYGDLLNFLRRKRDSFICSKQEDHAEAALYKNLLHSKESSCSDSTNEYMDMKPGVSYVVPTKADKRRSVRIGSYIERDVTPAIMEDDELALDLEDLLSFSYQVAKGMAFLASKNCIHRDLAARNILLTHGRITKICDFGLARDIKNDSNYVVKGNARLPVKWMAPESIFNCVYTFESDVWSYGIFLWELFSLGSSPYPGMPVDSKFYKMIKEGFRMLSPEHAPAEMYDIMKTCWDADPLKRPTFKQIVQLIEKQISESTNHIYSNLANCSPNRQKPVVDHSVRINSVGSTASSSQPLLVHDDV
Sequence of Protein cereblon/Mast/stem cell growth factor receptor Kit (Q96SW2 whole entry): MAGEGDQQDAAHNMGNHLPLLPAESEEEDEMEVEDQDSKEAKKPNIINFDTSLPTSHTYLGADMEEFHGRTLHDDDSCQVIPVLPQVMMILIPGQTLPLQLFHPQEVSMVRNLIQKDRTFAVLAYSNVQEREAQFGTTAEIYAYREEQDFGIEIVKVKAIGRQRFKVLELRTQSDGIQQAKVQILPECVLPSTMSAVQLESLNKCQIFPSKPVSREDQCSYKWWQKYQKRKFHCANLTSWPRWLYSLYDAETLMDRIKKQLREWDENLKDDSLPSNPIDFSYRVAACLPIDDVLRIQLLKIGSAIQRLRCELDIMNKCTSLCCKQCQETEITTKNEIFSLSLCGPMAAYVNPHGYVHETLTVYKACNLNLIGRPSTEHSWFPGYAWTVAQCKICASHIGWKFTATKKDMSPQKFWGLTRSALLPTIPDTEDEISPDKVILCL
Sequence of Protein cereblon/Platelet-derived growth factor receptor alpha (P16234 whole entry): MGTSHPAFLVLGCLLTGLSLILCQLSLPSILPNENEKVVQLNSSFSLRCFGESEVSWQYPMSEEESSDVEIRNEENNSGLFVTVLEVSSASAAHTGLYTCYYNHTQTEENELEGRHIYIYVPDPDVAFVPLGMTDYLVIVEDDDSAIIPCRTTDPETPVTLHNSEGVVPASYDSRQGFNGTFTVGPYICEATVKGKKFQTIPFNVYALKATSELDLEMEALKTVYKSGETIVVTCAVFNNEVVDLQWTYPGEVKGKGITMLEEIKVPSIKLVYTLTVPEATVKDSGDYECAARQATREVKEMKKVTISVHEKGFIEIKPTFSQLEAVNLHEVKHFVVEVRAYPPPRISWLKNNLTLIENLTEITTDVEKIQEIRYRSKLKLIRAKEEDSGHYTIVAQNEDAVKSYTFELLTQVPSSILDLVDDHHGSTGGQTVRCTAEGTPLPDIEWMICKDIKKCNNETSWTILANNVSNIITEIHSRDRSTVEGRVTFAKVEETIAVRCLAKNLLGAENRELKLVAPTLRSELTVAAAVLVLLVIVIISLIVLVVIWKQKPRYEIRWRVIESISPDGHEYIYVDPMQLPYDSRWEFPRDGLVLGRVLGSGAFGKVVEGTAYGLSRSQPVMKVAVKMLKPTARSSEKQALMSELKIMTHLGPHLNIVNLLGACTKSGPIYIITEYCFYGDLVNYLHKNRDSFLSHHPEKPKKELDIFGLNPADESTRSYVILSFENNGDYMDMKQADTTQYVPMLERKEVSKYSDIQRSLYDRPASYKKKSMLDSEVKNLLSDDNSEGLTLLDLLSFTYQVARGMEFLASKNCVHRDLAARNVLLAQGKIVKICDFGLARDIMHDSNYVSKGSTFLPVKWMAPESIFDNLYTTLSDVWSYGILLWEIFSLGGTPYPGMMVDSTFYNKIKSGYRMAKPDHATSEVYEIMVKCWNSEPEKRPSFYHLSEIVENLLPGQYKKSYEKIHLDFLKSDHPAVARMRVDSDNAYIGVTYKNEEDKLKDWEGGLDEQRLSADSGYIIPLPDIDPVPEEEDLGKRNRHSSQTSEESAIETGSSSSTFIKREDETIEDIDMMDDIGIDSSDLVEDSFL
Sequence of Protein cereblon/Platelet-derived growth factor receptor alpha (Q96SW2 whole entry): as the sequence (Q96SW2 whole entry) above
Sequence of Protein cereblon/Receptor-type tyrosine-protein kinase FLT3 (P36888 whole entry): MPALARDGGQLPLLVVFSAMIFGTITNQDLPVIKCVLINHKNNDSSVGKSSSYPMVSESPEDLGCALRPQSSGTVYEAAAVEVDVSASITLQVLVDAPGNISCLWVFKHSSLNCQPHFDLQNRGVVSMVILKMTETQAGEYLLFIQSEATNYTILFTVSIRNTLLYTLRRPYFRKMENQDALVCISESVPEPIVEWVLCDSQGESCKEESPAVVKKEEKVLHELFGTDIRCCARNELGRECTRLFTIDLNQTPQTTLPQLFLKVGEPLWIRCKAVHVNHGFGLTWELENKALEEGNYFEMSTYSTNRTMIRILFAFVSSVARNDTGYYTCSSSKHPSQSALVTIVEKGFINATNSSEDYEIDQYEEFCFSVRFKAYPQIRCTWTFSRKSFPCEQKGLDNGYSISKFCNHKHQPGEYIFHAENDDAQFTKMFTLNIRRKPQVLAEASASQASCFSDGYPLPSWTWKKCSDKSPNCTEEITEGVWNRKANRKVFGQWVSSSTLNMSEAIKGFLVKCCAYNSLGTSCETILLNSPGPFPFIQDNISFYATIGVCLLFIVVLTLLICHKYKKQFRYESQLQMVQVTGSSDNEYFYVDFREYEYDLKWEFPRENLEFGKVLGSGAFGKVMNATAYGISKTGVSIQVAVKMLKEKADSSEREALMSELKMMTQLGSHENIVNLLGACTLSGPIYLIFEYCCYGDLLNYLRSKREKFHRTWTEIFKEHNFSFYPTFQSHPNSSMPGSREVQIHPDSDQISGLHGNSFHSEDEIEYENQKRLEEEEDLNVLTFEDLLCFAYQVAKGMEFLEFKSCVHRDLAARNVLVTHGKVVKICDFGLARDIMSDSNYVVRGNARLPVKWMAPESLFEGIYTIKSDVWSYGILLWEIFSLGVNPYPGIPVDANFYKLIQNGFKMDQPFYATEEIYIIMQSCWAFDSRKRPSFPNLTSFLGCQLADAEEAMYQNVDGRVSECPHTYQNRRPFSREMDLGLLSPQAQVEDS
Sequence of Protein cereblon/Receptor-type tyrosine-protein kinase FLT3 (Q96SW2 whole entry): as the sequence (Q96SW2 whole entry) above

Structure (SMILES): Cc1ccc(C(=O)Nc2ccc(CN3CCN(C(=O)CCCc4cn(CCOCCOCCOCCNc5cccc6c5C(=O)N(C5CCC(=O)NC5=O)C6=O)nn4)CC3)c(C(F)(F)F)c2)cc1C#Cc1cnc2cccnn12 (configuration not stated)
- DC50 [1]: 20 nM
- pIC50 (K562): 8.12
- Activity [2]: Active
- pEC50 (BaF3): < 5.00
- pEC50 [3]: 7.55
- Activity [4]: Active
- Activity [5]: Active
- Activity [6]: Active
- pEC50 (H9c2): < 5.00
- pEC50 (HUVEC [7]): < 5.00
- pIC50 [8]: 7.88
- pIC50 [9]: 7.35
- pIC50 [10]: 5.59
- pIC50 [11]: 6.36
- Activity (HUVEC [12]): Non-Toxic
- CI [13]: < 1
- pIC50 [14]: < 6.52
- Activity [15]: Not Active
- Activity [16]: Not Active
- Activity [17]: Not Active
- Ratio IC50 [18]: 13
- Ratio IC50 [19]: 257

— ChEMBL document CHEMBL4616725, “Global PROTAC Toolbox for Degrading BCR-ABL Overcomes Drug-Resistant Mutants and Adverse Effects” (J Med Chem, 2020)
